Results published in patent US20250127136A1, “NOVEL METHOD FOR PROMOTING NODULATION IN PLANTS” (UNIVERSITE TOULOUSE III-PAUL SABATIER, priority 2015, published 2025).

Assays:
Glycine max [1] = test: Number of nodules in soybean plants inoculated with Bradirhizobium japonicum and watered with miPEP; assay type: in vivo; conditions: watering with 0.1 μM miPEP vs solvent (FIGS. 2, 9) or control peptide (FIG. 5)
Protocol: (§1) After sterilisation of the grains for 3 min in bleach diluted ¼, then rinsing with sterile water, the grains are incubated for 2 hours in water. Lastly, the grains are placed in a petri dish with damp paper towels at 28° C. Once sprouted, the grains are placed in a small pot containing oil dry® medium under a glass cover. After a few days' growth, the plants of which the development is uniform are selected for the experiment and transferred into a larger pot.
(§2) The bacteria are placed in culture in Campbel liquid medium (K2PO4:0.5 g/l, MgSO4 7H2O: 0.2 g/l, NaCl: 0.1 g/l, mannitol: 10 g/l, yeast extract: 2.5 g/l, Casamino acid: 0.5 g/l) (5 ml) at 28° C., then transferred to an Erlenmeyer flask containing 100 ml of Campbel medium. After a few days of culture, when the DO is 0.3 at 595 nm, the 100 ml of culture of B. japonicum were centrifuged for 30 min at 4000 rpm. The supernatant was discarded and the pellet resuspended in “caisson” culture medium (Lullien et al., Plant gene expression in effective and ineffective root nodules of alfalfa (Medicago sativa). Plant Mol Biol 9: 469-478, 1987) to achieve a DO of 0.05 at 595 nm. Each plant is inoculated with 20 ml of this solution. The plants are regularly watered with the “caisson” medium.
(§3) The treatment is performed by watering plants with the concentrated solution of miPEP or the equivalent of solvent solution for the control treatment. […]

miR172c = test: Measurement of the expression of miR172c in roots of watered soybean plants (qRT-PCR); assay type: in vivo, Glycine max; conditions: plants watered with miPEP172c at 0.1 μM vs control (FIG. 1) or 0.01 μM vs control peptide (FIG. 6)
Protocol: (§4) Each experiment was repeated from two to three times.
(§5) The plants are regularly watered with the “caisson” medium.
(§6) The treatments are performed every two days.

Glycine max [2] = test: Nitrogen concentration in the aerial parts of soybean plants watered with miPEP; assay type: in vivo; conditions: watering with 0.1 μM miPEP172c vs solvent (FIG. 3)
Protocol: The “nitrogen content” corresponds to the concentration of nitrogen in the plant or in part of the plant. For example, it can be the concentration of nitrogen in the aerial parts in g of nitrogen per kg of dry leaf weight. This concentration of nitrogen can be determined by techniques known to a person skilled in the art. For example, one method consists of burning a sample of known mass at an elevated temperature (approximately 900° C.) in the presence of oxygen, leading to a release of carbon dioxide, water, and nitrogen. The gases are then passed over particular columns (such as an aqueous potassium hydroxide solution), which absorb the carbon dioxide and water. A column containing a detector of thermal conductivity at the end is then used to separate the nitrogen from all residual carbon dioxide and the water, and the content of residual nitrogen is quantified.
as §5, §6

ENOD40-1 = test: Expression of the gene ENOD40-1 in roots of watered soybean plants (qRT-PCR); assay type: in vivo, Glycine max; conditions: plants watered with miPEP172c at 0,01 μM vs control peptide at 0.01 μM (FIG. 6)
Protocol: as §4, §5, §6

nifH = test: Expression of the gene nifH in roots of watered soybean plants (qRT-PCR); assay type: in vivo, Glycine max; conditions: plants watered with miPEP172c at 0,01 μM vs control peptide at 0.01 μM (FIG. 6)
Protocol: as §4, §5, §6

Hb2 = test: Expression of the gene Hb2 in roots of watered soybean plants (qRT-PCR); assay type: in vivo, Glycine max; conditions: plants watered with miPEP172c at 0,01 μM vs control peptide at 0.01 μM (FIG. 6)
Protocol: as §4, §5, §6

Glycine max [3] = test: Fresh pod weight of soybean plants watered with miPEP; assay type: in vivo; conditions: watering with 0.1 μM miPEP172c vs solvent (FIG. 4)
Protocol: as §1, §2, §3

Glycine max [4] = test: Root mass (fresh root weight) of soybean plants watered with miPEP; assay type: in vivo; conditions: watering with miPEP172c vs control peptide at 0.01 μM (FIG. 7)
Protocol: as §1, §2, §3

NNC1 = test: Expression of the gene NNC1 in roots of watered soybean plants (qRT-PCR); assay type: in vivo, Glycine max; conditions: plants watered with miPEP172c at 0,01 μM vs control peptide at 0.01 μM (FIG. 6)
Protocol: as §4, §5, §6

nifD = test: Expression of nifD revealed by nifD-LacZ fusions in nodules; assay type: in vivo, Glycine max; conditions: nodules of plants treated with miPEP172c vs control peptide (FIGS. 6 and 8)
Protocol: as §1, §2, §3

NIN = test: Expression of the gene NIN in roots of watered soybean plants (qRT-PCR); assay type: in vivo, Glycine max; conditions: plants watered with miPEP172c at 0,01 μM vs control peptide at 0.01 μM (FIG. 6)
Protocol: as §4, §5, §6

NSP1 = conditions: plants watered with miPEP172c at 0,01 μM vs control peptide at 0.01 μM (FIG. 6)
Protocol: as §1, §2, §3

| Substance | number of nodules (per gram of fresh root weight) (Glycine max [1]) | relative expression of miR172c (miR172c) | nitrogen content of the aerial parts (Glycine max [2]) | relative expression of the gene ENOD40-1 (ENOD40-1) | relative expression of the gene NifH (nifH) | relative expression of the gene Hb2 (Hb2) | fresh pod weight (Glycine max [3]) | development of the roots (fresh root weight) (Glycine max [4]) | relative expression of the gene NNC1 (NNC1) | fixation of nitrogen (NifH expression by RT-qPCR and nifD::LacZ fusions) (nifD) | relative expression of the gene NIN (NIN) | relative expression of the gene NSP1 (NSP1) |
| --- | --- | --- | --- | --- | --- | --- | --- | --- | --- | --- | --- | --- |
| miPEP167c: peptide MKGVHHFFHHKYVGLRG coded by an open reading frame of the primary transcript of miR167c in Glycine max (Glycine max) | significantly increases |  |  |  |  |  |  |  |  |  |  |  |
| miPEP172c: peptide MWVLCLFCWPTYTHGS coded by an open reading frame of the primary transcript of miR172c in Glycine max (SEQ ID NO: 2; Glycine max) | significantly increases | increases | significantly increases | increase | increase | increase | significantly increases | No effect | reducing | effective fixation of nitrogen | increase | increase |
